Experimental data from patent US9733237B2, “Methods for identifying candidates for the treatment of neurodegenerative diseases” (The Trustees of Columbia University in the City of New York, priority 2012, dated 2017).
Like-named read-outs stand apart in the source and are kept apart here.

Legend:
[1] = test system: SOD1^G93A (ALS) and SOD1^WT mouse embryonic stem cell-derived motor neurons; assay: Two-color screen for agents preferentially toxic to ALS motor neurons (mixed WT/G93A ES-MN culture); assay type: cell-based; details: for Preferential activity on ALS motor neurons: independent pair of WT and G93A lines
Method: GFP+ and RFP+ motor neurons were seeded in 96-well plates at equal proportions and imaged using a whole-well imaging platform (Plate Runner HD, Trophos, Marseilles, France). Live cells were scored with an automated image software (Metamorph, Molecular Devices, LLC, Sunnyvale, Calif.) using a neurite outgrowth criterion of five times the cell body diameter. Compounds from a small molecule library (Trophos) were loaded using automated liquid handling, and motor neuron survival was scored at 48 and 72 hours after exposure to stressors.
A survival ratio was calculated by dividing surviving % red cells with green cells for each well (lower left panel). Compounds eliciting ratios greater than 1.6 were considered hits (highlighted in lower left panel).
Multiple ES cell lines from SOD1^G93A mice that had been bred to a reporter strain expressing GFP under the motor neuron-specific Hb9 promoter were generated. ES cells from mice overexpressing wildtype human SOD1 (SOD1^WT) bred to mice expressing a new Hb9::RFP reporter (K. C. Kanning, unpublished) were used as controls. When differentiated in vitro using retinoic acid and an agonist of the sonic hedgehog pathway, these ES cells therefore generated green ALS motor neurons and red controls (FIG. 1A). By mixing these in equal numbers in culture, the response of ALS and control motor neurons to otherwise identical culture conditions could be quantified. This approach would reduce noise due to differences in individual culture wells, seeding density, position in incubator, etc., and that the ratio between numbers of WT and G93A cells would be a sensitive measure of selective vulnerability.
Using this assay miniaturized to a 96-well format, it was confirmed that after 3 days in either the presence or absence of a cocktail of neurotrophic factors, there was only a subtle decrease in ALS motor neuron survival relative to controls. An open-ended screen of the Tocriscreen Mini and Custom collection library of bioactive compounds was therefore performed to identify agents of known mechanism that could selectively induce death of ALS motor neurons. A total of 1,275 compounds were screened initially at a single concentration (10 μM), and those that were deemed too toxic were retested at 1 μM. […] Preferential activity on ALS motor neurons was subsequently confirmed for 4 of the hits using an independent pair of WT and G93A lines (FIG. 1B). The active compounds were: (a) capsaicin, an agonist of the […] receptor that is predominantly expressed on sensory neurons, (b) CPA (cyclopiazonic acid), which is an inhibitor of SERCA (sarco(endo)-plasmic reticulum Ca^++-ATPase) pumps, which sequester Ca^++ into the ER from the cytoplasm in an ATP-dependent manner (FIG. 2A), (c) DH97, a potent MT2 melatonin receptor antagonist, and (d) 2,3-DCPE, a compound that selectively induces apoptosis and downregulates Bcl-xL expression in human cancer vs. normal cells in vitro. The inventors focused on CPA because it induced the most robust change in the WT/G93A ratio (>3 in both combinations of ES lines) and because of the relevance of its mechanism of action to the alterations in Ca^++ handling that are characteristic of ALS motor neurons.
We first asked whether the actions of CPA were direct on motor neurons, or mediated by other cell types present in the mixed culture used for screening. […] Thus, degeneration induced by SERCA inhibition robustly differentiates between SOD1^G93A and SOD1^WT motor neurons. Neither thapsigargin nor CPA has gross effects on neuronal function. […] This provides further support for the notion that the selective effect of SERCA inhibitors on ALS motor neurons is a function of the disease.
A library of small molecule compounds (Tocriscreen Mini & Custom collection, 1275 compounds, or other collections of novel compounds) will be added at a concentration of 10 μM using automated liquid handling. The compounds will be added to the wells following the 20 hour imaging time point. […]

[2] = test system: neurons of the pre-Botzinger complex; details: cited from earlier work
[3] = test system: ES-MNs (G93A and WT); assay: Fura-2 calcium imaging of Ca++ release from ER stores; assay type: cell-based, mouse; details: 10 μM CPA, 20 minutes
Source text: To explore potential mechanisms underlying the ALS-selective toxicity of CPA, calcium imaging in ES-MNs loaded with the calcium indicator dye Fura-2 was used. In preliminary experiments, rise and fall constants following a 5-second pulse of kainic acid were monitored, and no significant difference between the G93A and WT lines were found (FIG. 2B). […] It was hypothesized that CPA might selectively induce an imbalance in Ca^++ handling. To monitor release of Ca^++ from endoplasmic reticulum (ER) stores, ES-MNs of each genotype were incubated for 20 minutes with 10 μM CPA. An initial rapid increase of Fura-2 signal was followed by a slow recovery, as Ca^++ was sequestered by other routes, out of which mitochondria may be the main compensatory compartment.

[4] = test system: SOD1^G93A mice; details: in vivo; cited from earlier work

OCCNCCCOc1cccc(Cl)c1Cl [2,3-DCPE]
Preferential activity on ALS motor neurons [1]: confirmed

CC(=O)C1=C(O)[C@@H]2[C@H]3c4c[nH]c5cccc(c45)C[C@H]3C(C)(C)N2C1=O [CPA, cyclopiazonic acid]
reduction in WT motor neurons numbers ([1]; 7.5 μM, after 48 hours): 40-50% | survival ratio (red WT cells/green mutant cells) ([1]; 7.5 μM, after 48 hours): 1.6-1.75 | change in the WT/G93A ratio ([1]; both combinations of ES lines): > 3 | effect on respiratory rhythm ([2]; applied to neurons of the pre-Botzinger complex): do not affect respiratory rhythm | G93A cells with greater initial Ca++ release [3]: about 40%

CCCCC(=O)NCCc1c(Cc2ccccc2)[nH]c2ccccc12 [DH97]
Preferential activity on ALS motor neurons [1]: confirmed

O=C(/C=C/c1ccccc1)NC(NC(=S)Nc1cccc2cccnc12)C(Cl)(Cl)Cl (centres unmarked) [Salubrinal]
protection in SOD1^G93A mice [4]: protective

COc1cc(CNC(=O)CCCC/C=C/C(C)C)ccc1O [capsaicin]
Preferential activity on ALS motor neurons [1]: confirmed

C/C=C(/C)C(=O)O[C@H]1C(C)=C2[C@H]([C@@H]1OC(=O)CCCCCCC)[C@@](C)(OC(C)=O)C[C@H](OC(=O)CCC)[C@@]1(O)[C@H]2OC(=O)[C@@]1(C)O [thapsigargin]
death of ALS motor neurons relative to controls ([1]; concentrations on the order of 1 nM): 2- to 4 fold | effect on respiratory rhythm [2]: do not affect respiratory rhythm
